Assay results from patent US20210017231A1, “ATP1A1-TARGETING POLYPEPTIDE AND USE THEREOF” (SUN YAT-SEN UNVIERSITY CANCER CENTER (SYSUCC), priority 2017, published 2021).
Bridge positions count the residues as written; N and C are the ends. Primed or numbered codes have the meaning given here. Ends that are not written are not given here. FITC′ = fluorescein isothiocyanate label; Cy5 = Cy5 dye label

What was measured:
[1] = test system: human breast cancer MDA-MB-231 cells; assay: Confocal laser scanning microscopy (immunofluorescence) of biotin peptide binding to cells; assay type: cell-based; conditions: MDA-MB-231 versus human normal breast MCF-10A cells
Description: The binding of Biotin-C (Biotin-SEQ ID NO:2) and Biotin-S3 (Biotin-SEQ ID NO:1) polypeptide to human breast cancer MDA-MB-231 cells was detected by confocal laser scanning microscopy. Meanwhile, the inventors compared it with the binding of the above polypeptides to human normal breast MCF-10A cells. The particular experimental procedure was as follows:
1) digesting cells with trypsin and plating the cells in a 24-well plate provided with a slide, 1×10^5/well;
2) adding Biotin-C (Biotin-SEQ ID NO:2), Biotin-S3 (Biotin-SEQ ID NO:1) polypeptide to the cells, 200 μg/well, and incubating at 37° C. for 2 h;
3) discarding the cell incubation solution;
4) fixing the cells with 4% paraformaldehyde for 10 min;
5) washing five times with 0.1% PBST, 500 μl/well, and washing off unbound polypeptides;
6) destroying the membranes with 0.1% Triton, and washing once with PBST, 500 μl/well;
7) blocking with 5% BSA, 30 min;
8) adding anti-Biotin Streptavidin (1:1000) into the wells, and incubating at 4° C. for 12 h;
9) washing three times with 0.1% PBST, 5 min/time;
10) adding anti-Streptavidin conjugated FITC (1:1000) into the wells, and incubating at room temperature for 45 min;
11) washing three times with 0.1% PBST, 5 min/time;
12) staining cell membranes with WGA (1:1000), and incubating at room temperature for 10 min;
13) washing three times with 0.1% PBST, 5 min/time; […]

[2] = test system: breast cancer MDA-MB-231 cells; assay: Polypeptide blocking experiment (ELISA on cells); assay type: cell-based, human; conditions: 5, 10, 20 μg/μl S3 polypeptide
Method: An enzyme-linked immunosorbent assay was used to detect the binding of S3 phage to breast cancer MDA-MB-231 cells, and then to detect whether […] could block the binding of […] to breast cancer MDA-MB-231 cells. The specific procedure was as follows:
2) digesting cells with trypsin, counting, and uniformly plating the cells in a 96-well plate, 1×10^4/well;
3) in the blocking experiment, adding 5, 10, 20 μg/μl S3 polypeptide and incubating at 37° C. for 1 h;
4) in the targeting experiment, adding phages in a concentration gradient of 1.0×10^9, 2.0×10^9, 4.0×10^9, 8.0×10^9, […] pfu/well, incubating at 37° C. for 2 h for binding; in the blocking experiment, adding 20 μg/μl of Biotin-S3 polypeptide;
5) discarding the cell incubation solution;
6) fixing the cells with 4% paraformaldehyde for 10 min;
7) washing five times with 0.1% PBST, 270 μl/well;
8) destroying the membranes with 0.1% Triton, and washing once with PBST, 270 μl/well;
9) blocking with 5% BSA for 30 min;
10) adding 1:1000 diluted anti-M13 conjucted HRP by 50 μl/well, and incubating at room temperature for 1 h;
11) washing five times with 0.1% PBST;
12) developing color with a TMB kit; and 13) reading at OD 450 nm by a microplate reader.

[3] = test system: breast cancer MDA-MB-231 cells; assay: Flow cytometry binding of fluorescent peptide to cells; assay type: cell-based, human; conditions: 10 μM, on ice 20 min, FIG. 1C
Method: The binding of FITC-S3 (SEQ ID NO:3) fluorescent peptide to breast cancer MDA-MB-231 cells was detected by flow cytometry. The inventors first synthesized a fluorescent peptide in which the […] and Con peptide were conjugated to a fluorescent dye FITC, and then incubated FITC-S3 (SEQ ID NO:3) fluorescent peptide with the cells, and finally detected the binding thereof by flow cytometry. The particular experimental procedure was as follows:
1) digesting cells with trypsin, counting, and adjusting the concentration thereof to be 1.0×10^6 cells/tube, resuspending the cells with 100 μl serum-free 1640 medium;
2) adding FITC-C or […] in PBS (10 μM), and incubating the cells on ice for binding for 20 min;
3) washing three times with 0.1% PBST, 1 ml/time, and centrifuging at 400 g for 5 min;
4) resuspending the cells with 500 μl PBS; and
5) detecting by flow cytometry.

[4] = test system: breast cancer MDA-MB-231 tumors; assay: Infrared fluorescent molecular imaging of breast cancer tumor-bearing mice; assay type: in vivo
Description: Tumor-bearing mice were used for the infrared fluorescence molecular imaging experiment to detect the distribution of Cy5-S3 (Cy5-SEQ ID NO:1) fluorescent peptide in various organs and tumors of the tumor-bearing mice. The experimental procedure of the imaging experiment of small living animals was as follows: 1) taking out nine male NOD SCID mice of 4-week old; 2) digesting breast cancer MDA-MB-231 cells with trypsin, counting, and adjusting the concentration to be 5.0×10^7 cells/ml, resuspending the cells with 20% Matrigel DMEM, and injecting with 200 μl/mouse; 3) observing tumor formation for 1-2 weeks, measuring the sizes of the tumors, and randomizing the mice into three groups according to the sizes of the tumors, i.e. […] 4) dissolving 300 μg fluorescent peptides in 200 μl PBS, injecting the fluorescent peptides into the tail veins of the mice, and dynamically detecting the distribution of the fluorescent peptides in various organs and tumors of the nude mice by using a small living animal imaging instrument. 5) taking out every organ and tumor, homogenizing, measuring the fluorescence intensity of each organ and tumor, and making statistical analysis.

[5] = test system: nasopharyngeal carcinoma CNE2 tumor; assay: Infrared fluorescent molecular imaging of nasopharyngeal carcinoma mouse model; assay type: in vivo, mice; conditions: 48 hours after tail vein injection, FIG. 2F
Description: (§1) According to the above procedure, the Cy5-S3 (Cy5-SEQ ID NO:1) fluorescent peptides were applied in esophageal cancer KYSE30 tumor-bearing and nasopharyngeal carcinoma CNE2 mouse models, in order to detect whether Cy5-S3 (Cy5-SEQ ID NO:1) fluorescent peptide can be imaged with infrared fluorescent molecular imaging in other tumors.

[6] = test system: esophageal cancer KYSE30 tumor; assay: Infrared fluorescent molecular imaging of esophageal cancer tumor-bearing mice; assay type: in vivo; conditions: 48 hours after tail vein injection, FIGS. 2D, 2E
Description: as §1

CSISSLTHC [Peptide S3, ATP1A1-targeting polypeptide, SISSLTH motif with Cys at both terminals]
targeting of breast cancer cells compared to normal breast MCF-10A cells [1]: obvious property of targeting breast cancer cells
blocking of the binding of Biotin-S3 polypeptide to breast cancer cells ([2]; 20 μg/μl Biotin-S3, FIG. 1B): can block the binding
concentration dependence of the blocking effect ([2]; FIG. 1B): concentration-dependent

CSISSLTHC-GGGS-FITC (CSISSLTHCGGGS-{FITC′}; disulfide 1-9 (inferred)) [FITC-S3, S3 peptide conjugated to fluorescent dye FITC]
binding ability to breast cancer MDA-MB-231 cells versus FITC-control fluorescent peptide [3]: stronger than that of FITC-control fluorescent peptide

Cy5-CSISSLTHC (disulfide 1-9 (inferred)) [Cy5-S3, Cy5 fluorescent S3 peptide]
content of fluorescent peptide in unit weight of the tumor versus other organs ([4]; 48 hours after tail vein injection, FIG. 2C): significantly higher than that in other organs
enrichment in tumor by tissue analysis of dissected mice ([4]; mouse, in vivo): significantly enriched in the tumor
enrichment in tumors by infrared imaging of the living mice ([4]; mouse, in vivo): obviously enriched in the tumors
infrared fluorescent molecular imaging of nasopharyngeal carcinoma [5]: can also be used for the infrared fluorescent molecular imaging
infrared fluorescent molecular imaging of esophageal cancer [6]: can also be used for the infrared fluorescent molecular imaging
